# Assay results as given in patent US5898069A, “Phosphate assay” (Medical Research Council, priority 1993, dated 1999).
# Values joined by “and” are separate entries in the source; they are usually repeats but may differ in a detail not shown here. Equal entries are not always repeated. Where two headings read alike, the source gives them in different places.
# B1: MDCC-PBP (conjugate, UniProt P0AG82 26-346, looked up)
# Phosphate-binding protein PstS: EASLTGAGATFPAPVYAKWADTYQKETGNKVNYQGIGSSGGVKQIIANTVDFGASDAPLSDEKLAQEGLFQFPTVIGGVVLAVNIPGLKSGELVLDGKTLGDIYLGKIKKWDDEAIAKLNPGLKLPSQNIAVVRRADGSGTSFVFTSYLAKVNEEWKNNVGTGSTVKWPIGLGGKGNDGIAAFVQRLPGAIGYVEYAYAKQNNLAYTKLISADGKPVSPTEENFANAAKGADWSKTFAQDLTNQKGEDAWPITSTTFILIHKDQKKPEQGTEVLKFFDWAYKTGAKQANDLDYASLPDSVVEQVRAAWKTNIKDSSGKPLY
# modifications: MDCC fluorophore label
# B2: wild-type PBP: E. coli phosphate binding protein (PBP), unlabelled wild-type (protein, UniProt P0AG82 26-346, looked up)
# Phosphate-binding protein PstS: B1 Phosphate-binding protein PstS
# Columns and labels:
# PBP mutant D292C = molecular target: T1, PBP mutant D292C (Escherichia coli, UniProt P0AG82, D317C); format: binding, E. coli
# T1 construct: from the Nterminus of the mature protein; made in house; host or cells: E. coli strain ANCC75, plasmid pSN5182/N, periplasm
# T1 sequence (P0AG82 26-346 D317C): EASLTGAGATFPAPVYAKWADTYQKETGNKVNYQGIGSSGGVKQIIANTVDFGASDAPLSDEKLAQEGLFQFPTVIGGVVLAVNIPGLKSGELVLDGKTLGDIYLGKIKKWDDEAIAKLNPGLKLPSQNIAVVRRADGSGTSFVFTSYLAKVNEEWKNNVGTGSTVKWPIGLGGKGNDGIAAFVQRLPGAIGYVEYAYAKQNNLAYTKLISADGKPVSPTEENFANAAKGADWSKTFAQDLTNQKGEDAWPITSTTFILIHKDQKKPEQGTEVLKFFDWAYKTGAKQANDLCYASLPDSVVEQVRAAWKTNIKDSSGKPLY
# Excerpt: (e) Using the Pi mop, the fluorescence change was 65%.
# MDCC-PBP [1] = molecular target: T2, MDCC-PBP (Escherichia coli, UniProt P0AG82, A222C); format: binding, E. coli
# T2 construct: A197 is located at position 197 numbering from the N-terminus of the mature PBP; made in house; host or cells: E. coli strain ANCC75, plasmid pSN5182/N, periplasm
# T2 sequence (P0AG82 26-346 A222C): as the sequence (P0AG82 26-346 D317C) above, with A197C, C292D counted along it
# Procedure: The Pi dependent fluorescence change was measured for a variety of conditions at a single concentration of Pi (Table 2).
# (§1) The solutions contained 2 μM MDCCPBP (except for [b] 10 μM and [c]
# The fluorescence change was measured at 465 nm with excitation at
# [a] The solution was preincubated with the Pi mop.
# CPM-PBP = molecular target: T3, CPM-PBP (Escherichia coli, UniProt P0AG82, A222C); format: binding, E. coli
# T3 construct: A197 is located at position 197 numbering from the N-terminus of the mature PBP; made in house; host or cells: E. coli strain ANCC75, plasmid pSN5182/N, periplasm
# T3 sequence (P0AG82 26-346 A222C): as the sequence (P0AG82 26-346 D317C) above, with A197C, C292D counted along it
# Procedure: Analysis of the effects of Pi analogues and solution composition was performed as for MDCC-PBP.
# [2] = system: purine nucleoside phosphorylase; assay: Phosphorolysis of 7-methyl guanosine by purine nucleoside phosphorylase (Pi mop), absorbance change at 260 nm; format: biochemical, bacterial; details: pH 8.0, 20 mM Tris.HCl, 1 μM MgCl2, 30° C.
# MDCC-PBP [3] = molecular target: T2, MDCC-PBP; assay: Titration of arsenate in a solution of MDCC-PBP (fluorescence change); format: binding, E. coli; details: read-out: dissociation constant
# Excerpt: (§2) Because very small levels of Pi contamination can affect the observed change on adding Pi and because of variability in the protein activity, the maximum percent increase of fluorescence varies from 400-500%0 Although PBP is very specific for Pi (Luecke & Quiocho, 1990), it was to be used as a probe in the presence of other phosphate species, such as esters or purine nucleotides and so it was important to know at what levels these might interfere with Pi measurements. Several Pi analogues were also tested (Table 2) and only arsenate and vanadate produced significant increases. For a titration of arsenate in a solution of MDCC-PBP, the fluorescence change was used to obtain a dissociation constant of 3 μM. In all cases except arsenate, when subsequently Pi was added, the full fluorescent change was observed. The Pi dependent fluorescence change was measured for a variety of conditions at a single concentration of Pi (Table 2). The change is only slightly affected by pH (7-8) or ionic strength.
# [4] = Storage stability of labelled protein; format: physicochemical
# Excerpt: The Pi -sensitive labeled mutant, MDCC-PBP was purified further and tested as described in the Experimental Procedures to show it was a singly-labeled protein with no unlabeled protein or unbound fluorophore. The further purification is important as the unlabeled protein will also bind Pi. Unbound fluorophore would reduce the percentage fluorescence change by increasing the background and it might also slowly react with or bind to other components in the experimental system. The ion exchange chromatography separated MDCC-PBP completely from unlabeled PBP and unbound fluorophore. Thus the final labeled protein has a ratio of absorbance maxima, 280/430 nm of 1.8. The fluorescence excitation maximum is 425 nm and the emission maximum is 474 nm and the fluorescence change with excess Pi at pH 7.0 for the conditions in FIG. 2 is 5.3-fold with a shift of maximum emission to 464 nm. The labeled protein could be stored at […] and was stable on ice for at least 5 days.
# [5] = Fluorescence titration of Pi to labelled PBP to obtain the dissociation constant; format: binding; details: for Kd: approximate
# Procedure: The solution at 20° C. contained […] MDCC-PBP, 1 mM MgCl2, 10 mM PIPES pH 7.0. Aliquots of Pi were added and the fluorescence emission was measured at 465 nm with excitation at 425 nm. The data was corrected for the small amount of dilution;
# The solution at 25° C. in 10 mM PIPES, pH 7.0, 1 mM MgCl2 contained 0.28 μM MDCC-PBP. Aliquots of Pi were added and the fluorescence emission was measured as in FIG. 3.
# The fluorescence titrations of Pi with CPM-PBP (and MDCC-PBP) were fitted to the following equations using Enzfitter software:
# Ratio of fluorescence at a given [Pi ] to that at zero Pi =(Q[Ep ]+[E]-[Ep ])/[E] where
# [E ]P=([P]+[E]+K-√(([P]+[E]+K)^2 -4[P][E]))/2
# [E]=concentration of CPM-PBP
# Q=ratio of fluorescence for CPM-PBP.Pi to that for the unliganded CPM-PBP
# The product was characterized in several ways. […] The dissociation constant was determined by titrating Pi at low [MDCC-PBP] and measuring fluorescence (FIG. 4). […] Because Pi binding is very tight, these dissociation constants can be considered only approximate: the fluorescence titration could not be done at sufficiently low concentrations to obtain accurate values of Kd.
# [6] = Stopped-flow kinetics of Pi binding to labelled PBP and its release
# Procedure: A. 0.1 μM MDCC-PBP (mixing chamber concentration) in 10 mM PIPES, pH 7.0 was rapidly mixed at 21° C. with different concentrations of Pi in this buffer in a stopped flow apparatus, while fluorescence emission was monitored using a 455 nm cut-off filter, with excitation at 436 nm using a mercury lamp. The curve show a time course with 0.25 μM Pi. […] The best-fit single exponential (65.3 s^-1) is shown by the dashed line, almost completely hidden by the experimental curve.
# B. The release kinetics were measured by rapidly mixing 0.125 μM Pi, 0.25 μM MDCC-PBP with 10 μM wild-type PBP (mixing chamber concentrations) at 22° C. Other conditions were as above The best-fit single exponential (21.4 s^-1) is shown by the dashed line, almost completely hidden by the experimental curve;
# In order to use the probe to measure Pi release from ATPases and GTPases in real time it was important to know the kinetics of Pi interaction with the labeled protein. Because of the fast rates only part of the exponential is observed: a significant proportion of the reaction occurs during the dead time of the instrument (i.e. the time taken for the solution to flow between mixing and the observation chamber).
# The dissociation rate of the MDCC-PBP.Pi complex was measured directly in the stopped flow apparatus by rapid mixing of this complex with excess wild-type PBP. Pi is released from the fluorescent complex and binds to the wild-type protein with a rate constant limited by the rate of release (FIG. 6B). The observed rate was 21.3±0.1 (S.E.M.) s^-1 (22° C., […], pH 7.0) for wild-type concentrations from 1.25 to 10 μM, with 0.25 μM MDCC-PBP and 0.125 μM Pi. Because this rate is constant over a range of wild-type concentrations and because the rate is much slower than that expected for Pi binding, assuming the wild-type PBP has similar rate constant to the MDCC-PBP, the observed rate constant probably represents Pi release.
# [7] = Pi dependent fluorescence change of labelled PBP in various solution compositions; format: binding; details: for % fluorescence increase: 100 μM Pi added
# Procedure: 3.2 μM MDCC-PBP was in 10 mM PIPES, 1 mM MgCl2 (pH 7.0) at 22° C. Pi was added to 50 μM;
# as §2, §1
# 3.2 μM) in 20 mM PIPES (pH 7.0) except where indicated. The solutions
# in B had 100 μM Pi added to produce the indicated fluorescence
# change. […]
# [8] = Competition titration of MDCC-PBP.Pi with wild-type PBP; format: binding
# [9] = addition 100 μM, 6 μM CPM-PBP, 10 mM Tris.HCl pH 8.0
# [10] = addition 1 mM, 6 μM CPM-PBP, 10 mM Tris.HCl pH 8.0
# [11] = addition 100 μM, 2 μM MDCC-PBP, 20 mM PIPES pH 7.0
# [12] = addition 100 μM, preincubated with the Pi mop, 2 μM MDCC-PBP, 20 mM PIPES pH 7.0
molecule,measurement,setting,value
"O=C1C=CC(=O)N1c1ccc(Nc2ccc3cc(S(=O)(=O)O)ccc3c2)cc1 [MIANS, 2[4(1-maleimidyl)anilino]naphthalene6-sulfonic acid]",fluorescence change using the Pi mop,PBP mutant D292C,65%
O=P(O)(O)OP(=O)(O)O [Pyrophosphate],% fluorescence increase,MDCC-PBP [1]; pH 7,6%
same,% fluorescence increase,CPM-PBP; pH 8,5%
Nc1ncnc2c1ncn2[C@@H]1O[C@H](COP(=O)(O)OP(=O)(O)OP(=O)(O)O)[C@@H](O)[C@H]1O [ATP],% fluorescence increase,"MDCC-PBP [1]; addition 100 μM, preincubated with the Pi mop, 10 μM MDCC-PBP, 20 mM PIPES pH 7.0",2%
same,% fluorescence increase,"MDCC-PBP [1]; addition 1 mM, preincubated with the Pi mop, 10 μM MDCC-PBP, 20 mM PIPES pH 7.0",11%
same,% fluorescence increase,CPM-PBP; [9],5%
same,% fluorescence increase,CPM-PBP; [10],13%
"O=P(O)(O)O [Pi, inorganic phosphate]",Km,[2],34 µM
same,% fluorescence increase,MDCC-PBP [1]; pH 7,430%
same,% fluorescence increase,CPM-PBP; pH 8,65%
"CC(OP(=O)(O)OP(=O)(O)OP(=O)(O)OC[C@H]1O[C@@H](n2cnc3c(N)ncnc32)[C@H](O)[C@@H]1O)c1ccccc1[N+](=O)[O-] (stereo partly shown) [NPE-caged ATP, P^31-(2-nitrophenyl)ethyl ATP]",% fluorescence increase,"MDCC-PBP [1]; addition 5 mM, preincubated with the Pi mop, 10 μM MDCC-PBP, 20 mM PIPES pH 7.0",0%
Sodium vanadate,% fluorescence increase,MDCC-PBP [1]; [11],35%
same,% fluorescence increase,CPM-PBP; [9],-2%
same,% fluorescence increase,"CPM-PBP; addition 1.1 mM, 6 μM CPM-PBP, 10 mM Tris.HCl pH 8.0",-11%
Nc1ncnc2c1ncn2[C@@H]1O[C@H](COP(=O)(O)OP(=O)(O)O)[C@@H](O)[C@H]1O [ADP],% fluorescence increase,MDCC-PBP [1]; [12],3%
same,% fluorescence increase,CPM-PBP; [9],4%
O=[As]([O-])([O-])O.[Na+].[Na+] [Sodium arsenate],Kd,MDCC-PBP [3],3000 nM
same,% fluorescence increase,MDCC-PBP [1]; [11],313%
same,% fluorescence increase,CPM-PBP; [9],25%
O=S(=O)([O-])[O-].[Na+].[Na+] [Sodium sulphate],% fluorescence increase,"MDCC-PBP [1]; addition 1 mM, 2 μM MDCC-PBP, 20 mM PIPES pH 7.0",3%
same,% fluorescence increase,CPM-PBP; [10],0%
O=P(O)(O)OC[C@H]1OC(O)[C@H](O)[C@@H](O)[C@@H]1O (stereo partly shown) [Glucose-6-phosphate],% fluorescence increase,MDCC-PBP [1]; [12],3%
same,% fluorescence increase,CPM-PBP; [9],4%
Nc1nc2c(ncn2[C@@H]2O[C@H](COP(=O)(O)OP(=O)(O)O)[C@@H](O)[C@H]2O)c(=O)[nH]1 [GDP],% fluorescence increase,MDCC-PBP [1]; [12],3%
same,% fluorescence increase,CPM-PBP; [9],5%
B1,stable on ice,[4],at least 5 days
same,protein active (from linear fluorescence response to Pi),"[5]; FIG. 3, 20° C., 1 mM MgCl2, 10 mM PIPES pH 7.0",75-80%
same,maximum fluorescence enhancement,"[5]; FIG. 4, 25° C., 10 mM PIPES pH 7.0, 1 mM MgCl2, 0.28 μM MDCC-PBP",415%
same,Kd,[5]; pH7.0,30 nM
same,Kd,[5]; pH 8.0,80 nM
same,"Pi binding, best-fit single exponential","[6]; 0.1 μM MDCC-PBP, 0.25 μM Pi, 10 mM PIPES pH 7.0, 21° C.",65.3 s⁻¹
same,dissociation (Pi release) rate of labelled PBP.Pi complex,"[6]; 22° C., PIPES pH 7.0, 0.25 μM MDCC-PBP, 0.125 μM Pi mixed with excess wild-type PBP (1.25 to 10 μM)",21.3 ± 0.1 s⁻¹ and 21.4 s⁻¹
same,"k+ (Pi binding rate constant, one step binding model)","[6]; pH 7.0, [Pi]<5μM",1.36e+08 M⁻¹ s⁻¹
same,k- (from fit of observed binding rates),"[6]; pH 7.0, [Pi]<5μM, prone to error",43 s⁻¹
same,% fluorescence increase,"[7]; 10 mM PIPES (pH 7.0), 1M NaCl, 3.2 μM MDCC-PBP",350%
same,% fluorescence increase,"[7]; 10 mM PIPES (pH 7.0), 2 μM MDCC-PBP",430%
same,% fluorescence increase,"[7]; 10 mM Tris-HCl (pH 8.0), 2 μM MDCC-PBP",405%
same,fluorescence change with excess Pi,"[7]; pH 7.0, FIG. 2: 3.2 μM MDCC-PBP, 10 mM PIPES, 1 mM MgCl2, 22° C., Pi 50 μM",5.3 fold
same,maximum percent increase of fluorescence,[7]; varies with Pi contamination and protein activity,400-500%
B2,relative affinity for Pi versus the labeled mutant (MDCC-PBP),[8],two-fold tighter
